In brackets after ≈: the same amount, converted by molar mass. Entries after “also recorded” stand apart in the source; their conditions may differ.
Key:
MMP-8 = target: MMP-8; set-up: method as in PMID 22529049, PMID 12217351, PMID 12217351; conditions: known inhibitors, Figure 1a; cited from earlier work
HDAC-8 = target: T1, HDAC-8 (Homo sapiens, UniProt Q9BY41); assay: Human off-target inhibition, HDAC-8; format: biochemical
T1 sequence (Q9BY41 1-377): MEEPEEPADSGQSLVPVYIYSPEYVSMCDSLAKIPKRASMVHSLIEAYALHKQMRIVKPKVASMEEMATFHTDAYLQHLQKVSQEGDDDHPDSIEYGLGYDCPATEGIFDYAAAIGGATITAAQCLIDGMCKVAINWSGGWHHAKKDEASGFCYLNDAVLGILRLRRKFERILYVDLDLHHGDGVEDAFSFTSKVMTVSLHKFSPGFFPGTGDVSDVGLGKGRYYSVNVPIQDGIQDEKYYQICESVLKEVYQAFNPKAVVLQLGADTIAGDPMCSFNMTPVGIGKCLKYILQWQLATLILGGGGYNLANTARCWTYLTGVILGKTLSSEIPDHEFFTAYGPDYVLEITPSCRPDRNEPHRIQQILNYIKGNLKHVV
Method: (§1) To assess the selectivity of the compounds over human MMPs and on other bacterial collagenases, selected compounds were tested against ColG-CU and ColH-PD from C. histolyticum and ColA-CU from B. cereus strain ATCC14579. In addition, the compounds were tested on catalytic domains of three human MMPs, which are characterized by different depths of the S1′ binding pocket (MMP-1 (shallow), −2 (intermediate), and −3 (deep)). They were also tested against other important human off-targets, which are involved in gene expression and the processing of TNF-α; these include HDAC-3, -8, TACE (ADAM-17),[33],[34] and COX-1.

ColQ1-CU [1] = target: T2, ColQ1-CU (Bacillus cereus, UniProt B9J3S4); format: biochemical, B. cereus; conditions: rapid dilution
T2 sequence (B9J3S4 94-765 limits assumed): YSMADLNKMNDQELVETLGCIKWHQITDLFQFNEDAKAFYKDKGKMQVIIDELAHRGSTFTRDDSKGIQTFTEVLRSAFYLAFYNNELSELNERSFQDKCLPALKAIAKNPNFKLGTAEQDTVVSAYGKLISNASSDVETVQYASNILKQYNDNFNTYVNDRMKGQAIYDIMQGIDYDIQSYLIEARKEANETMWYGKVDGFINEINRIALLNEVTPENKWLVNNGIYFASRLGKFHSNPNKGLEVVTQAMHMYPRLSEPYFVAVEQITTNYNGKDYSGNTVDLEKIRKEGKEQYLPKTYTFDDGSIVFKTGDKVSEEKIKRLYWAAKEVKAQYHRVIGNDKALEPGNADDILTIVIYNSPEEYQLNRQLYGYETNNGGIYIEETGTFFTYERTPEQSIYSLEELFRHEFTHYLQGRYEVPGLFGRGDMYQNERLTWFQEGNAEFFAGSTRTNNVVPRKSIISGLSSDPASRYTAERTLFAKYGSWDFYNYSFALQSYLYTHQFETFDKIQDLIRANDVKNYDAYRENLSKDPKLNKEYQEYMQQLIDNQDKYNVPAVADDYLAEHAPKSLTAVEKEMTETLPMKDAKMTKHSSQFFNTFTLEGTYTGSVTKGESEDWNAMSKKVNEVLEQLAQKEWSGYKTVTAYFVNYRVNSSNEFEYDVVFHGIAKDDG

ColQ1-CU [2] = target: T2, ColQ1-CU; assay: biochemical; set-up: species or system B. cereus strain Q1
in vitro [3] = conditions: human, NHDF cells (normal human dermal fibroblasts)
MMP-2 = target: T3, MMP-2 (Homo sapiens, UniProt P08253); assay: MMP inhibition assay, MMP-2; format: biochemical
T3 construct: catalytic domains of three human MMPs; purchased Sigma-Aldrich
T3 sequence (P08253 110-444 limits assumed): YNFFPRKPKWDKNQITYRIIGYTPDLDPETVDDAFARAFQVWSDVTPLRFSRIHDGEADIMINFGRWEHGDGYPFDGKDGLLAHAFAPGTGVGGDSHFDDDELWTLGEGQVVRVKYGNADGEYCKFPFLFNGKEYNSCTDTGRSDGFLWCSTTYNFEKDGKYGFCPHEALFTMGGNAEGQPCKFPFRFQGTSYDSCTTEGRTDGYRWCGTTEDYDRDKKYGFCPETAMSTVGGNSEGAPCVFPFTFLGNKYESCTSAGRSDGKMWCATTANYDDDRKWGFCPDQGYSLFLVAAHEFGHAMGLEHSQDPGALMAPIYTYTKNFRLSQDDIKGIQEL
Method: as §1
(§2) The MMP inhibition assay (Sigma-Aldrich, Saint Louise, MO) was performed as previously reported and in accordance with the manufacturer’s instructions. The fluorescence signals were measured in a CLARIOstar plate reader (BMG LABTECH, Ortenberg, Germany) at a concentration of 100 μM.

in vitro [4] = conditions: human, HepG2 cells (hepatocellular carcinoma)
MMP-1 = target: T4, MMP-1 (Homo sapiens, UniProt P03956); assay: MMP inhibition assay, MMP-1; format: biochemical
T4 construct: catalytic domains of three human MMPs; purchased Sigma-Aldrich
T4 sequence (P03956 98-276 limits assumed): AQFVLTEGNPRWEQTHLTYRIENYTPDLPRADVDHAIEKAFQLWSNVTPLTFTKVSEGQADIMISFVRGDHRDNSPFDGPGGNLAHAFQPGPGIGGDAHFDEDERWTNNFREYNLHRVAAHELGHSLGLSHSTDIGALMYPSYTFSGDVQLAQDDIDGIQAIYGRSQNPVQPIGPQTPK
Method: as §1, §2

MMP-3 = target: T5, MMP-3 (Homo sapiens, UniProt P08254); assay: MMP inhibition assay, MMP-3; format: biochemical
T5 construct: catalytic domains of three human MMPs; purchased Sigma-Aldrich
T5 sequence (P08254 100-272 limits assumed): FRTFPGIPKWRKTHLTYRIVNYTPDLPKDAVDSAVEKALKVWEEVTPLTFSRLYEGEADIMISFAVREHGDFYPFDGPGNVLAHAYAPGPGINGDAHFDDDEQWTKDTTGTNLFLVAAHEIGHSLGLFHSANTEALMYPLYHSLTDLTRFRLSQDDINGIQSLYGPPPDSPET
Method: as §1, §2

B. cereus AH187 = assay: B. cereus growth inhibition assay; format: cell-based; conditions: Bacillus cereus, AH187; BHI medium, 37 °C, 48 h, 200–3 μM; read-out: MIC50 (µM) AH187
[5] = Stability of 27 with LC-MS in DMEM medium; format: physicochemical; conditions: 200 μM in DMEM, 37 °C, 5 h, 5% CO2, LC-MS
Method: We also examined the hydroxamate compounds 27, 28, 29, 31, 32, and 33. […] Intrigued by the results of the hydroxamate compounds, we investigated their stability with LC-MS in the conditions of the NHDF infection model to obtain a potential explanation for the observed findings. We used 27 as a representative example for this compound class.
After the incubation, 2 μL of the compound was transferred to LC-MS vials containing 200 μL of acetonitrile and LC-MS spectra were measured. Three controls were included: (i) 27 in DMEO, (ii) 27 in DMEM without incubation, and (iii) DMEM medium.

[6] = test system: B. cereus collagenases released in the NHDF infection model; format: cell-based, B. cereus AH187
ColA-CU [7] = target: T6, ColA-CU (Bacillus cereus, UniProt Q81BJ6); format: biochemical, B. cereus; conditions: rapid dilution
T6 sequence (Q81BJ6 93-764): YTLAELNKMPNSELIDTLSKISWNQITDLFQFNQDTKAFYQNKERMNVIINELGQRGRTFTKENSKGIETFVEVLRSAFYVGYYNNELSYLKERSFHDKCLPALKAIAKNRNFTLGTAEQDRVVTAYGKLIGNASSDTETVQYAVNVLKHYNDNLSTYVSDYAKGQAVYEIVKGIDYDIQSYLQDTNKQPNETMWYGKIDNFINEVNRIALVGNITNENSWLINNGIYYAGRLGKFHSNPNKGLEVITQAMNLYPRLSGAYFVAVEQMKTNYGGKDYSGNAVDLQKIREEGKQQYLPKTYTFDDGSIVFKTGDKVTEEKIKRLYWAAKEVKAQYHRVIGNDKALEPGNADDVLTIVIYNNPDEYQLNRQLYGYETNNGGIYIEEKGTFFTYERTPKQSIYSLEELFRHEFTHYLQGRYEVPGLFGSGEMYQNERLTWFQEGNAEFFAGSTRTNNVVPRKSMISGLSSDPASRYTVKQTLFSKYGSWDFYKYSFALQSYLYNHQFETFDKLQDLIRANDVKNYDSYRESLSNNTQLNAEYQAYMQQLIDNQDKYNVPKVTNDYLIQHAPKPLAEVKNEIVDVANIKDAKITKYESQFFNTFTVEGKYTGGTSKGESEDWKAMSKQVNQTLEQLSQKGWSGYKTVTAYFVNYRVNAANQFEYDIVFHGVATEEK

[8] = test system: NHDF cells infected with B. cereus; assay: NHDF infection model, cell morphology/attachment and fibrillar collagen (picrosirius red); format: cell-based, human; conditions: B. cereus infection, 5 h
in vitro [9] = conditions: human, HEK293 cells (embryonal kidney)
ColA-CU [10] = target: T6, ColA-CU; assay: biochemical; format: biochemical, B. cereus strain ATCC14579
TACE (ADAM-17) = TACE (ADAM-17) (Homo sapiens, UniProt P78536); assay: Human off-target inhibition, TACE; format: biochemical
TACE (ADAM-17), sequence (P78536 215-824): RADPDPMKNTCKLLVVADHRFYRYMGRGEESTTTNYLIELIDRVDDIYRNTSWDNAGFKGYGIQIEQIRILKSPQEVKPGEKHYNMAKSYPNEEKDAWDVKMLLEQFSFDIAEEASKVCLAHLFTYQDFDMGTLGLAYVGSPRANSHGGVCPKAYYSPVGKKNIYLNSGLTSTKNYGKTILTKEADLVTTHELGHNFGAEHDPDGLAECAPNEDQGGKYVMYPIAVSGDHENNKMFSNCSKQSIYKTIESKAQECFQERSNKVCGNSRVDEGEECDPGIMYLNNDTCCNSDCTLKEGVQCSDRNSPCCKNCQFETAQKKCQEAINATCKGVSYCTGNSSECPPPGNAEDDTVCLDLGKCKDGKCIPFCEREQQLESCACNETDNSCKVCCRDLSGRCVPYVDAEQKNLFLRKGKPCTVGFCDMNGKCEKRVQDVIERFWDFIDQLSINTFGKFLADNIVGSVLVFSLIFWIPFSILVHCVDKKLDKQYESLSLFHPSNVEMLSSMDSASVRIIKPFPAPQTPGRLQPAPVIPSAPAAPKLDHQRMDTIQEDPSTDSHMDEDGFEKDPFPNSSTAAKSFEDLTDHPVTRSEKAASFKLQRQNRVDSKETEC
Method: as §1

in vitro [11] = conditions: dog, MDCK II cells (Madin–Darby canine kidney II)
ColG-CU = ColG-CU (Hathewaya histolytica, UniProt Q9X721); assay: biochemical; format: biochemical, C. histolyticum
ColG-CU, sequence (Q9X721 111-786): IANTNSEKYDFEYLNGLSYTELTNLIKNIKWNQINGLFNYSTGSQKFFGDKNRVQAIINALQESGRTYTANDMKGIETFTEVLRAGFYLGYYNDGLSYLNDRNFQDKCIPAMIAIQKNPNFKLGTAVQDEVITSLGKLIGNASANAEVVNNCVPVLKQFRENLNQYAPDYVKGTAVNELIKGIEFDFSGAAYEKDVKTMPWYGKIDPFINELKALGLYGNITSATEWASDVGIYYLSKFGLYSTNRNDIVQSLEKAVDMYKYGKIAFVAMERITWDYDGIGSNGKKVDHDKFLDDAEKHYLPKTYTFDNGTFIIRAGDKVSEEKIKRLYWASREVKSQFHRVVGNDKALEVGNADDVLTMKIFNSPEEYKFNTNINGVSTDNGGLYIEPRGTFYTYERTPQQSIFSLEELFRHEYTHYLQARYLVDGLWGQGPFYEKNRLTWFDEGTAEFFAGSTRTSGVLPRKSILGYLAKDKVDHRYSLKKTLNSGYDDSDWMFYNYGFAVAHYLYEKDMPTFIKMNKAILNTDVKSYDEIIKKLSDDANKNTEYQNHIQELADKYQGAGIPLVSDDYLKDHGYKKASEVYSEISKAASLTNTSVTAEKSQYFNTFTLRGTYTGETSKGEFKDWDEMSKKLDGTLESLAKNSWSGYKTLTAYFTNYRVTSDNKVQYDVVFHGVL

ColQ1-FL = ColQ1-FL (Bacillus cereus, UniProt B9J3S4); format: biochemical; conditions: 1 mg/mL Col I, 50 ng ColQ1-FL, SDS-PAGE
ColQ1-FL, sequence (B9J3S4 94-965 limits assumed): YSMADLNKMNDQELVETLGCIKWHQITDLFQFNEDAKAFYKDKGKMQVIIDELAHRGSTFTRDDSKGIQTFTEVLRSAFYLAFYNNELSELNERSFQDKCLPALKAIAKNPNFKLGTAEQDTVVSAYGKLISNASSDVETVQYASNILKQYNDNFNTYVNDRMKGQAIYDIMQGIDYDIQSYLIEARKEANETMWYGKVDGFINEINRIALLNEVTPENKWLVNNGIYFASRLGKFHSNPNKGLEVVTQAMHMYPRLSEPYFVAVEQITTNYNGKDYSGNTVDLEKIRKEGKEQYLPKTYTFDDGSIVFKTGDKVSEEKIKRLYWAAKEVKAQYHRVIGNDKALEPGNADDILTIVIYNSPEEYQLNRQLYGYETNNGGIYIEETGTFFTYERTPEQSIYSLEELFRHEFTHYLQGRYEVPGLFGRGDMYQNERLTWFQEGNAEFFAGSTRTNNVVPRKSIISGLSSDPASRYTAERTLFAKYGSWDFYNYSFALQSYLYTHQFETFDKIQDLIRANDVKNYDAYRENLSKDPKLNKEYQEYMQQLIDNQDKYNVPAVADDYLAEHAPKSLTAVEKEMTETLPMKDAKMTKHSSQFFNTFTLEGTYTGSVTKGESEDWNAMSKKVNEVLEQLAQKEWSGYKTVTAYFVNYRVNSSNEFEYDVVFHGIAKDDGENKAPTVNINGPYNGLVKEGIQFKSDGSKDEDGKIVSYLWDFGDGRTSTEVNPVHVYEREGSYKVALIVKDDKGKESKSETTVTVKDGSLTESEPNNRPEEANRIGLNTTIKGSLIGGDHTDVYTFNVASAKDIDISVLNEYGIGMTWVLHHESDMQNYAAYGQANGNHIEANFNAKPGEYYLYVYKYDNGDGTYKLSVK

ColH-PD [12] = target: T7, ColH-PD (Hathewaya histolytica, UniProt Q46085); format: biochemical, C. histolyticum
T7 sequence (Q46085 331-721 limits assumed): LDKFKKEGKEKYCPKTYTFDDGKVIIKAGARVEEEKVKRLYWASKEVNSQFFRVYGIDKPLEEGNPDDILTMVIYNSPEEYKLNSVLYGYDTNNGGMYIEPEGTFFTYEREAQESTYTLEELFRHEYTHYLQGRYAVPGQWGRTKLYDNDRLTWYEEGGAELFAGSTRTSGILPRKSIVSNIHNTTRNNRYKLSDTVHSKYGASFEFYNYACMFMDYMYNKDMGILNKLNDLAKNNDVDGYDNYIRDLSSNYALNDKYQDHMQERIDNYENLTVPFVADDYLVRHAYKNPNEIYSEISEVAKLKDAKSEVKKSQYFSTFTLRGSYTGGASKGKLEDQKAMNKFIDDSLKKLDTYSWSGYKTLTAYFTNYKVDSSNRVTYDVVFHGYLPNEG

ColH-PD [13] = target: T7, ColH-PD; assay: biochemical; format: biochemical, C. histolyticum
HDAC-3 = HDAC-3 (Homo sapiens, UniProt O15379); assay: Human off-target inhibition, HDAC-3; format: biochemical
HDAC-3, sequence (O15379 whole entry): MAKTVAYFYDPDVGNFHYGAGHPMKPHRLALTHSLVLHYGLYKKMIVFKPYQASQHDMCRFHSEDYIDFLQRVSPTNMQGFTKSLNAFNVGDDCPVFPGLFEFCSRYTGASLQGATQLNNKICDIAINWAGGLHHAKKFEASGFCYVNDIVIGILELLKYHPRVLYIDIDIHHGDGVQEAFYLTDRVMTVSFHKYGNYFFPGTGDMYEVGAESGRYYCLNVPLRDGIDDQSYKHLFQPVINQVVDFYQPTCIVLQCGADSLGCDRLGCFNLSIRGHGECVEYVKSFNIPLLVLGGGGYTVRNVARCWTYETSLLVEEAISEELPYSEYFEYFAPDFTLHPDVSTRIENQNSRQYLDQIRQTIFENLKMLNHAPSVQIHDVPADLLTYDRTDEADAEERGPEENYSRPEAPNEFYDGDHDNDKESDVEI
HDAC-3, sequence (Q9Y618 395-489 partner limits assumed): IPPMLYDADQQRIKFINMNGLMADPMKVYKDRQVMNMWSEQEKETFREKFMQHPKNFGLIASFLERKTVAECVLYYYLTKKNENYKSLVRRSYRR
Method: as §1

Compound: CC(NC(=O)C(Cc1ccccc1)NC(=O)NS(=O)(=O)c1ccc(F)cc1)C(=O)Nc1nnc(S)s1 (stereo not shown) [Compound 3]
- Ki (MMP-8): 0.1 µM

Compound: CC(=O)Nc1ccccc1OCc1cn(CCNC(=O)C(CC(C)C)C(=O)NO)nn1 (stereo not shown) [Compound 27, N-[2-[4-[(2-Acetamidophenoxy)methyl]triazol-1-yl]ethyl]-2-(hydroxycarbamoyl)-4-methyl-pentanamide]
- IC50 (HDAC-8): > 100 µM
- Reversibility of inhibition, ColQ1-CU (ColQ1-CU [1]): rapidly reversible inhibitors
- IC50 (ColQ1-CU [2]): 1.2 ± 0.1 µM
- Ki (ColQ1-CU [2]): 0.1 ± 0.02 µM
- inhibition at 100 µM (ColQ1-CU [2]; read-out: % Inhibition (ColQ1-CU) Mean): 97 ± 2%
- IC50 (in vitro [3]): > 200 µM
- IC50 (MMP-2): > 100 µM
- IC50 (in vitro [4]): > 100 µM
- IC50 (MMP-1): > 100 µM
- IC50 (MMP-3): > 100 µM
- MIC50 (B. cereus AH187): 200 µM (≈ 86.5 µg/mL)
- Stability under NHDF infection assay conditions [5]: no compound degradation; also recorded: confirmed, however, the stability
- Inhibitory effect on gelatinolytic activity of secreted collagenases [6]: no inhibitory effect on the collagenase in the zymography at all tested concentrations; also recorded: no inhibition of the collagenase in the gelatin zymography was detected
- Reversibility of inhibition, ColA-CU (ColA-CU [7]): rapidly reversible inhibitors
- Effect on cell morphology and ECM collagen content of infected NHDF cells [8]: neither able to rescue cell morphology nor able to maintain the collagen content of the ECM
- IC50 (in vitro [9]): > 100 µM
- Ki (ColA-CU [10]): 3.4 ± 4 µM
- inhibition at 100 µM (ColA-CU [10]; 100 μM, read-out: Percent inhibition of ColA-CU): 93 ± 2%
- IC50 (TACE (ADAM-17)): > 100 µM
- IC50 (in vitro [11]): > 200 µM
- Ki (ColG-CU): 31 ± 1 µM
- inhibition at 100 µM (ColG-CU; 100 μM, read-out: Percent inhibition of ColG-CU): 71 ± 7%
- Concentration above which Col I chains were maintained (ColQ1-FL): > 0.8 µM
- Reversibility of inhibition, ColH (ColH-PD [12]): rapidly reversible inhibitors
- Ki (ColH-PD [13]): 11.6 ± 0.4 µM
- inhibition at 100 µM (ColH-PD [13]; 100 μM, read-out: Percent inhibition of ColH-PD): 84 ± 2%
- IC50 (HDAC-3): > 100 µM

From paper PMC9574867, “Discovery and Characterization of Synthesized and FDA-Approved Inhibitors of Clostridial and Bacillary Collagenases” (Journal of Medicinal Chemistry, 2022)
